Paper PMC4854315, “Discovery of a novel allosteric inhibitor-binding site in ERK5: comparison with the canonical kinase hinge ATP-binding site” (Acta Crystallographica. Section D, Structural Biology, 2016)

Key:
Experiment in all cases: Z'-LYTE kinase panel
Type in all cases: biochemical
[1] = molecular target: T1, CAMK2B (CaMKII beta) (Homo sapiens, UniProt Q13554)
T1 construct: purchased ThermoFisher (SelectScreen, Z'-LYTE)
Protocol: (§1) Compounds 2, 3 and 5 were tested for activity against the 225 kinases in the ThermoFisher standard kinase panel. The standard Z′-LYTE assay protocol (ThermoFisher) was used to measure the percentage inhibition at 10 µM compound concentration (details are provided in the supporting information).

[2] = molecular target: T2, EEF2K (Homo sapiens, UniProt O00418)
T2 construct: purchased ThermoFisher (SelectScreen, Z'-LYTE)
Protocol: as §1

[3] = molecular target: T3, EPHB2 (Homo sapiens, UniProt P29323)
T3 construct: purchased ThermoFisher (SelectScreen, Z'-LYTE)
T3 sequence (P29323 19-1055): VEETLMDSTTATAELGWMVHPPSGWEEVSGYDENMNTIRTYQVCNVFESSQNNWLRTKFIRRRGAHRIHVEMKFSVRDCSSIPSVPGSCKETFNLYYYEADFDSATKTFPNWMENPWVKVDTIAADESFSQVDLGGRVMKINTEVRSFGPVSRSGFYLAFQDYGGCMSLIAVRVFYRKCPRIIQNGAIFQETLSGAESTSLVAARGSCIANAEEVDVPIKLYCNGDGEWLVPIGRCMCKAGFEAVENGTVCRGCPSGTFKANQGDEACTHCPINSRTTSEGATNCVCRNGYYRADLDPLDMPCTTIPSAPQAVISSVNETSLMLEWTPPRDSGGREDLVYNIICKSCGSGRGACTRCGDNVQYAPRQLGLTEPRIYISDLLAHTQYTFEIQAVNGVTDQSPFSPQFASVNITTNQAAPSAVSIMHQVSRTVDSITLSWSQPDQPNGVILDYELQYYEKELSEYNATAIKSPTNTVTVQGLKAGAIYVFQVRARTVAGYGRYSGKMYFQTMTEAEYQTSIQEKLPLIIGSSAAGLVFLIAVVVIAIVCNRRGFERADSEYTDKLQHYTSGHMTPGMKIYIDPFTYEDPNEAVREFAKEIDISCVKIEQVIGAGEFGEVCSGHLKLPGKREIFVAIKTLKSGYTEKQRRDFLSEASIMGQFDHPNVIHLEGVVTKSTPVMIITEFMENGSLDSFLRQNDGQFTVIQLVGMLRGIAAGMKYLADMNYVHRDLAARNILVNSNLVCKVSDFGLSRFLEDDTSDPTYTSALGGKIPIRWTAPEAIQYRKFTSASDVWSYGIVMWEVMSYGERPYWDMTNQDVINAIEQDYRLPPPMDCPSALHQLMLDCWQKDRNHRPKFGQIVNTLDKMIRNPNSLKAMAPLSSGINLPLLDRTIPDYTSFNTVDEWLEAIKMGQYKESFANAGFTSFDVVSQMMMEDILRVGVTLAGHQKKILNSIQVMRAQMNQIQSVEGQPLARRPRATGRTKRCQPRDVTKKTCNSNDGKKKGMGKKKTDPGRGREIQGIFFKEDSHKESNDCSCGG
Protocol: as §1

[4] = molecular target: T4, STK4 (MST1) (Homo sapiens, UniProt Q13043)
T4 construct: purchased ThermoFisher (SelectScreen, Z'-LYTE)
T4 sequence (Q13043 1-487): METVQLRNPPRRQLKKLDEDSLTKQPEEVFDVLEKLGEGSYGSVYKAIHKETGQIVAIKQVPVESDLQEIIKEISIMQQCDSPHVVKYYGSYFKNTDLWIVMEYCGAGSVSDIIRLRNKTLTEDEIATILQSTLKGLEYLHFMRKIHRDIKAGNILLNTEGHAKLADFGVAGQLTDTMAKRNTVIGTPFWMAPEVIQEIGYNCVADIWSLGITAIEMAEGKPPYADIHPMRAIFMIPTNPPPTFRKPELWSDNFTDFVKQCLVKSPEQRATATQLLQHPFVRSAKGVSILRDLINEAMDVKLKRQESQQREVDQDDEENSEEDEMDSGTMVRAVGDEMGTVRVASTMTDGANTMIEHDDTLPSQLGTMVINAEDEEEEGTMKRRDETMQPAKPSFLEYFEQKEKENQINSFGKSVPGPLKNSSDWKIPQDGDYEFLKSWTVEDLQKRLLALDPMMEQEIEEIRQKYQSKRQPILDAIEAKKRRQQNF
Protocol: as §1

[5] = molecular target: T5, MARK2 (Homo sapiens, UniProt Q7KZI7)
T5 construct: purchased ThermoFisher (SelectScreen, Z'-LYTE)
Protocol: as §1

[6] = molecular target: T6, TAOK2 (TAO1) (Homo sapiens, UniProt Q9UL54)
T6 construct: purchased ThermoFisher (SelectScreen, Z'-LYTE)
T6 sequence (Q9UL54 1-1235): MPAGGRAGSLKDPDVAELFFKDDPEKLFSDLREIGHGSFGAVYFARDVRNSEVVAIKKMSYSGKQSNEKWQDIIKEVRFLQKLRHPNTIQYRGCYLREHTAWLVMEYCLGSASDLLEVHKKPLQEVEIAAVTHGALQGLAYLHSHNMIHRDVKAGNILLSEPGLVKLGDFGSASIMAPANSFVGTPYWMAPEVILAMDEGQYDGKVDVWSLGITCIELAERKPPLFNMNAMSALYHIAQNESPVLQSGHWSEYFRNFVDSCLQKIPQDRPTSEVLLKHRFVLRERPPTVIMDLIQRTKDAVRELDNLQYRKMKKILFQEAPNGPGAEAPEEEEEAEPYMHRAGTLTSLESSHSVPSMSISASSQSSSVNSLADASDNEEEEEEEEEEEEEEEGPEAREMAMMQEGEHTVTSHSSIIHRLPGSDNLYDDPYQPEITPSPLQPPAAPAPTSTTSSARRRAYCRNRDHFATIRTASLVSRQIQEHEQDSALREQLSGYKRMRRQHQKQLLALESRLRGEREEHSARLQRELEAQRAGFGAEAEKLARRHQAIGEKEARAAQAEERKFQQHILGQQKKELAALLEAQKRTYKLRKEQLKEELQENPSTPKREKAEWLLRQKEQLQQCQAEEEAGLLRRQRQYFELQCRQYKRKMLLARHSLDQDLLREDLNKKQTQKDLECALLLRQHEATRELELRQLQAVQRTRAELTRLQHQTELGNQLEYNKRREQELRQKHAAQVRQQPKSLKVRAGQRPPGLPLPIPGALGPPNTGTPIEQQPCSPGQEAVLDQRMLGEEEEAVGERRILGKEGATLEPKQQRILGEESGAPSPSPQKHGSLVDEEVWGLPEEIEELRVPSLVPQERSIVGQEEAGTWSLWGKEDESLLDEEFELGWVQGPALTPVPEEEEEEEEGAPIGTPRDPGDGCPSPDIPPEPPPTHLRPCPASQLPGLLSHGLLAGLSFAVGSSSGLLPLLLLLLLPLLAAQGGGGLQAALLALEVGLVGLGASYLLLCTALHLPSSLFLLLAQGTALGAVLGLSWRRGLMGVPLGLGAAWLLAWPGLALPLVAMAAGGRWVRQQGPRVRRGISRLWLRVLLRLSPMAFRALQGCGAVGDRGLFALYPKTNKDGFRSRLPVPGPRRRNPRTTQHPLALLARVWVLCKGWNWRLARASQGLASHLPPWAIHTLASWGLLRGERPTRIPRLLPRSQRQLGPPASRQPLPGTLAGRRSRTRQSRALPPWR
Protocol: as §1

T5 sequence (Q7KZI7 whole entry): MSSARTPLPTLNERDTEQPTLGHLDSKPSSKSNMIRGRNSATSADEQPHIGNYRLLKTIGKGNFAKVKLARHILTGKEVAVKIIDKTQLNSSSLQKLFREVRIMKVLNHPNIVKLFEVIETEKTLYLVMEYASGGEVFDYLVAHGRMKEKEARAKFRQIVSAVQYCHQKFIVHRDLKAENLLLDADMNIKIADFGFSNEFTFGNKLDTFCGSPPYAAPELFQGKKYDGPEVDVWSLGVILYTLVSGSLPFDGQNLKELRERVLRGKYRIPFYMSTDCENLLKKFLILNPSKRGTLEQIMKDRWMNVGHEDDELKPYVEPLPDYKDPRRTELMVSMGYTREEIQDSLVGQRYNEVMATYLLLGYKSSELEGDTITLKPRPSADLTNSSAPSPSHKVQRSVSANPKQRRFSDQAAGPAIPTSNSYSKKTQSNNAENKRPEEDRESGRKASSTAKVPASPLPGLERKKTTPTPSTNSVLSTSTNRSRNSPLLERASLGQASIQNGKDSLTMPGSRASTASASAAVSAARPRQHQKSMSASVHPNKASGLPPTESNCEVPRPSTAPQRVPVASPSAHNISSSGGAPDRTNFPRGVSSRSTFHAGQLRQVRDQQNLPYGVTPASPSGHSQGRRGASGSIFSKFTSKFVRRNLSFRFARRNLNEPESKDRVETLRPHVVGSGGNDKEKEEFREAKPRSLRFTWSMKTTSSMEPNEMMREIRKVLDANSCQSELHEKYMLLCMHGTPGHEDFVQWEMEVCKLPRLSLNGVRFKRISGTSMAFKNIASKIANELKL

With “XMD8-92 [Compound 2, reference compound]” as the molecule, how does the “CAMK2B (CaMKII beta) % Inhibition” value ([1]; 10 µM compound, ATP Km app) read?
Its value is 70%.

What about the “EEF2K % Inhibition” value ([2]; 10 µM compound, ATP Km app) of the same molecule?
Its value is -6%.

And the “EPHB2 % Inhibition” value ([3]; 10 µM compound, ATP Km app)?
The value was 18%.

What about the “STK4 (MST1) % Inhibition” value ([4]; 10 µM compound, ATP Km app) of the same molecule?
Its value is 6%.

What about the “MARK2 % Inhibition” value ([5]; 10 µM compound, ATP Km app) of the same molecule?
The value was 9%.

What about the “TAOK2 (TAO1) % Inhibition” value ([6]; 10 µM compound, ATP Km app) of the same molecule?
The value was 39%.

With `Cc1ncc(-c2nc(Nc3ccc(C(=O)NCCN4CCCCC4)cc3)ncc2F)n1C(C)C` [Compound 3] as the molecule, how does the inhibition at 10 µM [1] read?
The inhibition at 10 µM was 70%.

What about the inhibition at 10 µM [2] of the same molecule?
The inhibition at 10 µM was 1.51%.

And the inhibition at 10 µM [3]?
Its inhibition at 10 µM is 97%.

And the inhibition at 10 µM [4]?
Its inhibition at 10 µM is 82%.

And the inhibition at 10 µM [5]?
Its inhibition at 10 µM is 89%.

And the inhibition at 10 µM [6]?
The inhibition at 10 µM was 97%.

For `Cc1cc(Nc2nc(N)nn2C(=O)NC(C)C)ccc1Cl` [Compound 5], which inhibition at 10 µM [1] is on record?
Its inhibition at 10 µM is -2.29%.

And the inhibition at 10 µM [2]?
The inhibition at 10 µM was -5.55%.

What about the inhibition at 10 µM [3] of the same molecule?
The inhibition at 10 µM was 7%.

What about the inhibition at 10 µM [4] of the same molecule?
Its inhibition at 10 µM is 65%.

What about the inhibition at 10 µM [5] of the same molecule?
Its inhibition at 10 µM is 24%.

And the inhibition at 10 µM [6]?
The inhibition at 10 µM was 21%.
